# Test results reported in patent publication US9303005B2, “Use of dibenzofuranone derivatives to inhibit kinases” (priority 2010, dated 2016).
# Assays:
# CK2 = conditions: prior-art value; read-out: IC50 (CK2, literature); cited from earlier work
# [1] = prior art; lactam ring hydrolysis; cited from earlier work
# CK2 holoenzyme = CK2 holoenzyme (Homo sapiens (Human), UniProt P68400); test: capillary electrophoretic CK2 inhibition/activity test (E-peptide substrate); format: biochemical; conditions: for IC50: capillary electrophoretic test, ten minutes pre-incubation; for CK2-activity at 10 μM: residual CK2 activity at 10 μM substance, values below 4% not reliably quantifiable
# Procedure: To this end, the capillary electrophoretic CK2 inhibition test using E-peptide as the substrate was carried out. […] Ten concentrations between 0.0001 μM and 10 μM were investigated for this purpose.
# Kuckländer (Kuckländer and Töberich, 1982; Bollig, 2007).
# [2] = prior art; cited from earlier work
# [3] = test system: PARP cleavage in LNCaP cells; test: PARP cleavage in LNCaP cells (Western Blot); format: cell-based, human
# Procedure: The controls were cells which had only been treated with DMSO (0 μM). After SDS-PAGE and Western Blotting, complete PARP (115 kDa) and the 89 kDa fragment obtained after caspase cleavage with the aid of an anti-PARP antibody were labelled.
# Next, we investigated whether the TF-mediated reduction in cell viability could be related to apoptotic events. To this end, cleavage of poly(ADP-ribose)-polymerase (PARP) in cells was assayed. Caspase 3 cleaves the 115 kDa PARP into two stable fragments: the 24 kDa DNA-binding N-terminal domain and the 89 kDa C-terminal fragment. This specific proteolysis of PARP characterizes the irreversible point of initiation apoptosis and can be assayed in a Western Blot of cell lysates with a specific PARP antibody. […] This effect was observed both after an incubation time of 24 h and also, more strongly, after 48 h.
# [4] = test system: endogenous CK2 of LNCaP cells; test: CK2 activity in lysates of treated LNCaP cells (radiometric test); format: cell-based, human; conditions: for endogenous CK2 activity of LNCaP cells: from 25 μM, 24 h or 48 h, relative to untreated cells
# Procedure: The CK2 activity was determined using a radiometric test procedure. The relative activities of the samples were each relative to untreated cells. White bars show the CK2 activity after 24 h; grey bars show the CK2 activity after 48 h incubation with each inhibitor. For samples (A) treated with TF, double determinations were carried out (the mean value is given in each case).
# LNCaP cells were incubated with TF in the same manner as in the experiments described above. After 24 h or 48 h, the CK2 activity of lysates was measured using radiometric CK2 testing. This investigation provided an indication as to whether the inhibition of TF found with the isolated enzyme could be observed in cellular systems. […] Cells were incubated for 24 h or 48 h with 25 μM, 50 μM or 75 μM of TF and then washed and lysed. The relative CK2 activity was calculated from these cell lysates. The reference was the CK2 activity of cell lysates from untreated cells incubated for corresponding periods. In order to compensate for any fluctuations in the radiometric test, in the case of TF, two samples per parameter were measured. As a qualitative control, the TBB samples were used and measured individually.
# The observed reduction in CK2 activity was thus due to modulation of the CK2 enzyme activity. […] Altogether, it can be seen that TF reduces the endogenous CK2 activity in LNCaP cells. […] Proof of the inhibition of intracellular CK2 is provided by the ability of TF to permeate cells.
# LNCaP cells = test: MTT test, viability of LNCaP cells; format: cell-based, human; conditions: relative to untreated cells; for viability at 75 µM / viability at 25 µM / viability at 50 µM: Homo sapiens, LNCaP
# Procedure: The viability was determined with the aid of the MTT test.
# A MTT test was used to determine the effect of TF on the viability of LNCaP cells. To this end, these cell lines were treated with three concentrations of TF (25 μM, 50 μM, 75 μM). The effect was determined after 24 h, 48 h and 72 h as the relative viability compared with untreated cells. […] After treating the LNCaP cells with TF, both the effects of increasing the concentration and also of prolonging the incubation time could be recorded. After 24 hours incubation with 25 μM of TF, the viability had already dropped to 45% and after the same incubation time with 50 μM of TF, it had dropped further to 30%. […] The effects after 24 h could be reinforced in each case by extending the incubation time. Thus, after 48 hours incubation with 25 μM, 50 μM and 75 μM of TF, a viability of 37%, 15% or 12% was observed. […] Thus, an incubation time of 24 h had only a small effect. […] Only at the highest concentration of 75 μM, a reduction to 45% after 48 h was recorded, and after 72 h, the viability was still 17% (FIG. 5B). […] In summary, it has been shown that the viability of LNCaP cells is reduced by both substances.
# CK2α′ (CK2a2) = CK2α′ (CK2a2) (Homo sapiens (Human), UniProt P19784); test: Reaction Biology radiometric kinase selectivity test; format: biochemical; conditions: 10 μM TF, 10 μM ATP; read-out: residual activity CK2α′
# Procedure: (§1) The listed PKs were incubated with 10 μM TF and 10 μM ATP. Next, the relative percentage kinase activity was determined (mean value from n=2). 100% activity was defined as the activity of the respective kinase in the absence of TF. The PK grouping was in accordance with Manning et al. (2002).
# (§2) After the inhibitory potency of TF had been able to be established in LNCaP cells, the possibility that TF could be a selective CK2 inhibitor had to be investigated. To this end, the inhibiting effect of TF on 63 isolated human protein kinases (PK) was investigated by the firm “Reaction Biology” (Malvern, Pa., USA). These included representatives of PKs from all main groups of the human kinome (Manning et al., 2002). The results of this investigation are shown in FIG. 8, classified into the main human PK groups. In this series of tests, all of the PKs were each incubated with 10 μM of ATP and 10 μM of TF. In a subsequent radiometric test, the respective kinase activity with respect to a sample without TF was determined. Since the KM values of PK with respect to ATP occasionally differed substantially (Knight and Shokat, 2005), the results only allow a semi-quantitative comparison of inhibition by TF to be made. […] However, the different test parameters, such as substrate and ATP concentration, buffer, etc., must be taken into account and so a direct comparison of the inhibition data as a percentage is not possible at this point. The seven PKs which were inhibited the most strongly (>70%) are listed separately in Table 3.
# SGK1 (d1-59, S422D) = SGK1 (d1-59, S422D) (Homo sapiens (Human), UniProt O00141, S422D); test: as above; format: biochemical; conditions: 10 μM TF, 10 μM ATP, relative kinase activity
# Procedure: as §1, §2
# Aurora A = Aurora A (Homo sapiens (Human), UniProt O14965); test: as above; format: biochemical; conditions: 10 μM TF, 10 μM ATP, relative kinase activity
# Procedure: as §1, §2
# PAK4 = PAK4 (Homo sapiens (Human), UniProt O96013); test: as above; format: biochemical; conditions: 10 μM TF, 10 μM ATP
# Procedure: as §1, §2
# MAPK14 = MAPK14 (Homo sapiens (Human), UniProt Q16539); test: as above; format: biochemical; conditions: 10 μM TF, 10 μM ATP
# Procedure: as §1, §2
# IRAK4 = IRAK4 (Homo sapiens (Human), UniProt Q9NWZ3); test: as above; format: biochemical; conditions: 10 μM TF, 10 μM ATP
# Procedure: as §1, §2
# LBK1 = LBK1 (Homo sapiens (Human), UniProt Q15831); test: as above; format: biochemical; conditions: 10 μM TF, 10 μM ATP
# Procedure: as §1, §2
# PKD2/PRKD2 = PKD2/PRKD2 (Homo sapiens (Human), UniProt Q9BZL6); test: as above; format: biochemical; conditions: 10 μM TF, 10 μM ATP, relative kinase activity
# Procedure: as §1, §2
# LCK = LCK (Homo sapiens (Human), UniProt P06239); test: as above; format: biochemical; conditions: 10 μM TF, 10 μM ATP, relative kinase activity
# Procedure: as §1, §2
# KDR/VEGFR2 = KDR/VEGFR2 (Homo sapiens (Human), UniProt P35968); test: as above; format: biochemical; conditions: 10 μM TF, 10 μM ATP, relative kinase activity
# Procedure: as §1, §2
# FLT4/VEGFR3 = FLT4/VEGFR3 (Homo sapiens (Human), UniProt P35916); test: as above; format: biochemical; conditions: 10 μM TF, 10 μM ATP, relative kinase activity
# Procedure: as §1, §2
# PIM1 = PIM1 (Homo sapiens (Human), UniProt P11309); test: as above; format: biochemical; conditions: 10 μM TF, 10 μM ATP, relative kinase activity
# Procedure: as §1, §2
# CK2α (CK2a) = CK2α (CK2a) (Homo sapiens (Human), UniProt P68400); test: as above; format: biochemical; conditions: 10 μM TF, 10 μM ATP; read-out: residual activity CK2α
# [5] = test system: 63 isolated human protein kinases; test: Selectivity profile over 63 isolated human protein kinases; format: biochemical; conditions: 10 μM TF, 10 μM ATP
# Procedure: as §1
# After the inhibitory potency of TF had been able to be established in LNCaP cells, the possibility that TF could be a selective CK2 inhibitor had to be investigated. To this end, the inhibiting effect of TF on 63 isolated human protein kinases (PK) was investigated by the firm “Reaction Biology” (Malvern, Pa., USA). These included representatives of PKs from all main groups of the human kinome (Manning et al., 2002). The results of this investigation are shown in FIG. 8, classified into the main human PK groups. In this series of tests, all of the PKs were each incubated with 10 μM of ATP and 10 μM of TF. In a subsequent radiometric test, the respective kinase activity with respect to a sample without TF was determined. Since the KM values of PK with respect to ATP occasionally differed substantially (Knight and Shokat, 2005), the results only allow a semi-quantitative comparison of inhibition by TF to be made. […]
# CK2 holoenzyme, sequence (P68400 whole entry): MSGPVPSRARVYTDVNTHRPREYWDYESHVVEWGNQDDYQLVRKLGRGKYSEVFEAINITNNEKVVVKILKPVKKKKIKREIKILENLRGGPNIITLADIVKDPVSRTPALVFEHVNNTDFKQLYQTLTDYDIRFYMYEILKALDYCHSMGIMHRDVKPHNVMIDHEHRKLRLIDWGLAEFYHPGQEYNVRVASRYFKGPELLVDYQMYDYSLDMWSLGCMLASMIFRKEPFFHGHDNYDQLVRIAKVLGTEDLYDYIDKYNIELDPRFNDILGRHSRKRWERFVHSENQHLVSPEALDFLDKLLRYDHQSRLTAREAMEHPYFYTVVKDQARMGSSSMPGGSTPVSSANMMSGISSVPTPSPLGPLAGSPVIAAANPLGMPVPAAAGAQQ
# CK2 holoenzyme, sequence (P67870 whole entry partner): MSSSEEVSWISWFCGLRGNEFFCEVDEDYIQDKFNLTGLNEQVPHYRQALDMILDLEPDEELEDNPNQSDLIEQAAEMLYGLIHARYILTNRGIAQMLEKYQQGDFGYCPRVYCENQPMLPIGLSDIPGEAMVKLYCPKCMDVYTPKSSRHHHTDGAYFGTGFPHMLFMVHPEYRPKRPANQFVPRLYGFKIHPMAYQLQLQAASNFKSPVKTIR
# CK2α′ (CK2a2), sequence (P19784 whole entry): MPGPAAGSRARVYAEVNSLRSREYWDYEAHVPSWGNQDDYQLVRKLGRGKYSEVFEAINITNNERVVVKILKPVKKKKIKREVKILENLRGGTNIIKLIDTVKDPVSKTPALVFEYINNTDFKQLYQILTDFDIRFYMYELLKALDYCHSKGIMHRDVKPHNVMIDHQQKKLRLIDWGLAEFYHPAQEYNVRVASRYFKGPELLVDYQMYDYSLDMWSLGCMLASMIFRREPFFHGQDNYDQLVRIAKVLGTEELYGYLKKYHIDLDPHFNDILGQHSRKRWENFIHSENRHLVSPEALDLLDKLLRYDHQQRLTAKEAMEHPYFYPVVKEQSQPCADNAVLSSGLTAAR
# KDR/VEGFR2, sequence (P35968 20-1356): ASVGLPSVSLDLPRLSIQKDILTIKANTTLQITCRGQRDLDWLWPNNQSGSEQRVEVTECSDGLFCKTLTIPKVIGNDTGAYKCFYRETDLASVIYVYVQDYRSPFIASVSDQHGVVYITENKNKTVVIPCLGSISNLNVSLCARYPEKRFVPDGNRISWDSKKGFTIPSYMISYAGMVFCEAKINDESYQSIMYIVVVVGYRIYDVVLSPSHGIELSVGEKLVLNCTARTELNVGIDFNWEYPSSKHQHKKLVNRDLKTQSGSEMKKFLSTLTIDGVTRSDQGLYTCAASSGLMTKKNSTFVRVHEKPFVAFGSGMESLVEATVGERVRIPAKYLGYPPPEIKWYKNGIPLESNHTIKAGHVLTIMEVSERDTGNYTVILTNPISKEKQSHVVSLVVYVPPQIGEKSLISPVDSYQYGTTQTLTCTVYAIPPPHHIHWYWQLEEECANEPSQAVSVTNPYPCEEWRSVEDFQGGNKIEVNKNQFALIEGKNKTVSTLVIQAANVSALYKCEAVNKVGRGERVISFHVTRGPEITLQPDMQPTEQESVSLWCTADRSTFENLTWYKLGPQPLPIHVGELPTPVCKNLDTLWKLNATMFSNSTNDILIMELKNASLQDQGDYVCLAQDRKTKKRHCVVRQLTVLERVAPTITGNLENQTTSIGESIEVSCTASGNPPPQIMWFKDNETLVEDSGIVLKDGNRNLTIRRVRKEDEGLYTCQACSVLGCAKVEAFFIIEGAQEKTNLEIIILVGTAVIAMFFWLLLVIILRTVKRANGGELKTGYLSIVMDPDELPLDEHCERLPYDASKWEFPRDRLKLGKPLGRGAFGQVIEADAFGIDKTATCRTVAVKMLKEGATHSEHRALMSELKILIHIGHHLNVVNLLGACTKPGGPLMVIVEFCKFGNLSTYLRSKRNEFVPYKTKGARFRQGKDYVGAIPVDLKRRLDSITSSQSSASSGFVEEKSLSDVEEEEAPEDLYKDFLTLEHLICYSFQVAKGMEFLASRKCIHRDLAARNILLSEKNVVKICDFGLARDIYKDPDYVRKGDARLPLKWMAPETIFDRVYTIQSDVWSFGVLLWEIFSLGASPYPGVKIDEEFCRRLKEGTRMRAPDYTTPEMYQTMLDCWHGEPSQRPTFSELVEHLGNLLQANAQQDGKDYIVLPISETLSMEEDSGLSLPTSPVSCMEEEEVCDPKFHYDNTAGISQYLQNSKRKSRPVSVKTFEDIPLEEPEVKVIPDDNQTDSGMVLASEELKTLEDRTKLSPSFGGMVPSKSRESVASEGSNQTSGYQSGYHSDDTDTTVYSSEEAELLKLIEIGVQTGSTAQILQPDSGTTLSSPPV
# CK2α (CK2a), sequence (P68400 whole entry): as the sequence (P68400 whole entry) above
# IRAK4, sequence (Q9NWZ3 whole entry): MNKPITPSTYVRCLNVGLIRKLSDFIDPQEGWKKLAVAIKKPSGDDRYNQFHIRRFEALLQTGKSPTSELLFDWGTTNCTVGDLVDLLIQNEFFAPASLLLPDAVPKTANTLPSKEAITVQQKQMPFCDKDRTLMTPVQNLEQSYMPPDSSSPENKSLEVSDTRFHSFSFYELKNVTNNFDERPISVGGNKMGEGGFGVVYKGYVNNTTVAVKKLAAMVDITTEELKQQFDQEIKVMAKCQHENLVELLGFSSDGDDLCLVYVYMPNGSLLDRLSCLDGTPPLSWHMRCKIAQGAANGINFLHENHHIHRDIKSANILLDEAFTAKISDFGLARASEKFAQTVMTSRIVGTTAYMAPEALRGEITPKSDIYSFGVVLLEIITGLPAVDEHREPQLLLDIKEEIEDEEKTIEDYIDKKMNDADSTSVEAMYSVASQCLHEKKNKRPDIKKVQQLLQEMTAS
# LBK1, sequence (Q15831 whole entry): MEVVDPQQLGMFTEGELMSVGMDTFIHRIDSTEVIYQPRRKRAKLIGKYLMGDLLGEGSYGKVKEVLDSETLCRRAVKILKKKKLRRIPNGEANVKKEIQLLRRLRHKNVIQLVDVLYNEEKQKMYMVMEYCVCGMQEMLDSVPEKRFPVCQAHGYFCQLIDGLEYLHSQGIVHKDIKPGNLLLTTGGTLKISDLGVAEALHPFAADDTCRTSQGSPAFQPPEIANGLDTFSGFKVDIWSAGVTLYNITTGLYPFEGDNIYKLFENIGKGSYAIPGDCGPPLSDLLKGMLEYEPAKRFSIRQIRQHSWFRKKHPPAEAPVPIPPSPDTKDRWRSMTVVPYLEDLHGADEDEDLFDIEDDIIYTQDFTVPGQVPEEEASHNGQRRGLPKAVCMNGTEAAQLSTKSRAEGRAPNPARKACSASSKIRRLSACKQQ
# LBK1, sequence (Q7RTN6 whole entry partner): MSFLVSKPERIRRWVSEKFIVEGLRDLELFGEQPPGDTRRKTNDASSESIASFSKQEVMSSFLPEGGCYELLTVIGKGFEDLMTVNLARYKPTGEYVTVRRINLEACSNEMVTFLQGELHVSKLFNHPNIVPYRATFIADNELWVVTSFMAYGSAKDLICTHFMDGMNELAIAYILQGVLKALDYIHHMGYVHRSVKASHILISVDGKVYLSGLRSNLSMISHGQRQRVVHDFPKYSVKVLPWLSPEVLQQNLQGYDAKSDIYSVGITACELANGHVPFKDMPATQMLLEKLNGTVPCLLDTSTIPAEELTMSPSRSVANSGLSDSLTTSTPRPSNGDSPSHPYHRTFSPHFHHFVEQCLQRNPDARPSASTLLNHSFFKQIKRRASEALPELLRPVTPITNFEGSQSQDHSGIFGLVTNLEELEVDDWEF
# LBK1, sequence (Q9Y376 whole entry partner): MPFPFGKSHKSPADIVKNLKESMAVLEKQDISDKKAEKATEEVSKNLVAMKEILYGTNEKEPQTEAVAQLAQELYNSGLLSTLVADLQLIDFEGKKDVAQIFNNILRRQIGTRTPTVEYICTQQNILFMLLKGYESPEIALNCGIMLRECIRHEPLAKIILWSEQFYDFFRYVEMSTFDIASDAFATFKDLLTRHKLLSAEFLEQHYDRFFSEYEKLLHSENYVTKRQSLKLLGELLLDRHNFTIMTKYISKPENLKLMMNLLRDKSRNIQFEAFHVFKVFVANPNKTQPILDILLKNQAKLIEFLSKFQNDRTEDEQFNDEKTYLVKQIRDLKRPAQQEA
# SGK1 (d1-59, S422D), sequence (O00141 60-431 S422D): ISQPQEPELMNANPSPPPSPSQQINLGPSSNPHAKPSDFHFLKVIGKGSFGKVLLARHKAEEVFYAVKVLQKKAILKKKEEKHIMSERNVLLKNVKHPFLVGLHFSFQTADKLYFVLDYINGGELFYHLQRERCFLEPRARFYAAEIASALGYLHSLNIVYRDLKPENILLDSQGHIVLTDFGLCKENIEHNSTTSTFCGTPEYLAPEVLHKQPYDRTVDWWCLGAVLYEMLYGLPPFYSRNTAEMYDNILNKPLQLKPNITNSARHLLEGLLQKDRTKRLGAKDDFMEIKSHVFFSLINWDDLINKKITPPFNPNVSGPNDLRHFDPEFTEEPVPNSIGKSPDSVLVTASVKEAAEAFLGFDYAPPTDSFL
# PAK4, sequence (O96013 whole entry): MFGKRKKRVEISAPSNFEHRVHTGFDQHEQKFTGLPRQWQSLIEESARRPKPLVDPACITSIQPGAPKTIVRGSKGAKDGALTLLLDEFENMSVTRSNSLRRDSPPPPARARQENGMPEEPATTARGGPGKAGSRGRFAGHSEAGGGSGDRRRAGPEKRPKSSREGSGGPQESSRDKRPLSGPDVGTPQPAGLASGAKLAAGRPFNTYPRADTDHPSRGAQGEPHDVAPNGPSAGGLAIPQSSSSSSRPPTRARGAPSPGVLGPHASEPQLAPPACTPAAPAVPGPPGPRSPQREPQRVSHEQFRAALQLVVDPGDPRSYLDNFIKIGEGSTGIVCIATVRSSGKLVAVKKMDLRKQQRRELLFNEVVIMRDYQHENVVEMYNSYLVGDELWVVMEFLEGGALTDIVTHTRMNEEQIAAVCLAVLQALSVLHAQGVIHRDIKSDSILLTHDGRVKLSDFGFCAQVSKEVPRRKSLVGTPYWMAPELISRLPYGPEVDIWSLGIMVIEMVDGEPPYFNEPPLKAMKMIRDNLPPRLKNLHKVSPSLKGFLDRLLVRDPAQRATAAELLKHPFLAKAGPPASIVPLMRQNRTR
structure (smiles),measurement,setting,value
"CC1=C(Br)COc2c1ccc(O)c2Br [DBC, 3,8-dibromo-7-hydroxy-4-methyl-chromene]",IC50,CK2,100 nM
C=CC1=C(C)c2cc3[n-]c(cc4nc(cc5[n-]c(cc1n2)c(C)c5C=C)C(C)=C4CCC(=O)O)c(CCC(=O)O)c3C.[Fe+2] [Haematin],IC50,CK2,550 nM
"O=C(O)Cc1c2ccccc2n2c1[nH]c(=O)c1ccccc12 [IQA, (5-oxo-5,6-dihydroindolo[1,2-a]quinazolin-7-yl) acetic acid]",stability in aqueous media,[1],unstable in aqueous media
"O=c1c2c(O)cccc2oc2c([N+](=O)[O-])ccc(O)c12 [MNX, 1,8-dihydro-4-nitroxanthen-9-one]",IC50,CK2,400 nM
CCOC(=O)c1oc2c(Cl)c(Cl)c(OC(C)=O)c(C#N)c2c1N [Ric138],IC50,CK2 holoenzyme,2400 nM
CC(C)=CC(=O)c1coc2ccc(O)cc12 [Ric149],CK2-activity at 10 μM,CK2 holoenzyme,61%^
CC(=O)Oc1c(Cl)c(Cl)c2oc(C(=O)C=C(C)C)c(N)c2c1C#N [Ric152],IC50,CK2 holoenzyme,200 nM
CCOC(=O)c1oc2ccc(OC(C)=O)c(CNC(C)=O)c2c1NC(C)=O [RicFur],CK2-activity at 10 μM,CK2 holoenzyme,110%^
"Brc1c(Br)c(Br)c2[nH]nnc2c1Br [TBB, 4,5,6,7-tetrabrombenzotriazole]",solubility in water,[2],relatively poor solubility in water
same,bands of the 89 kDa PARP fragment,[3]; 25 μM,a faint band could be seen at 89 kDa
same,bands of the 89 kDa PARP fragment,"[3]; from 50 μM, 24 h and 48 h",almost identical results
same,CK2 activity of LNCaP cell lysate,"[4]; 75 μM, 24 h, called most probably a rogue result",90%
same,endogenous CK2 activity of LNCaP cells,[4],50%
same,viability of LNCaP cells,"LNCaP cells; 25 μM, 72 h",no effects were observed
same,viability at 75 µM,LNCaP cells; 24 h,90%
same,viability at 75 µM,LNCaP cells; 48 h,45%
same,viability at 75 µM,LNCaP cells; 72 h,17%
"Cc1ccc(N/C=C2\C(=O)CCc3c2oc2c(Cl)c(Cl)c(O)cc32)cc1 [TF, (Z)-6,7-dichloro-1,4-dihydro-8-hydroxy-4-[(4-methylphenylamino)methylene]-dibenzo[b,d]furan-3(2H)-one]",remaining activity at 10 µM,CK2α′ (CK2a2),35%
same,"Activity SGK1 (d1-59, S422D)","SGK1 (d1-59, S422D)",14.16%
same,Activity Aurora A,Aurora A,11.00%
same,kinase activity PAK4,PAK4,clear increase in activity
same,kinase activity MAPK14,MAPK14,clear increase in activity
same,kinase activity IRAK4,IRAK4,clear increase in activity
same,kinase activity LBK1,LBK1,clear increase in activity
same,Activity PKD2/PRKD2,PKD2/PRKD2,20.90%
same,Activity LCK,LCK,29.20%
same,Activity KDR/VEGFR2,KDR/VEGFR2,13.05%
same,Activity FLT4/VEGFR3,FLT4/VEGFR3,19.68%
same,Activity PIM1,PIM1,19.90%
same,mode of inhibition,CK2 holoenzyme; IC50 at 8 different ATP concentrations,ATP competitive inhibitor
same,Ki,"CK2 holoenzyme; Y-axis intersection of IC50 vs ATP concentration (8 ATP concentrations), read-out: inhibition constant Ki",14.7 nM
same,IC50,CK2 holoenzyme,30 nM
same,bands of the 89 kDa PARP fragment,"[3]; from 50 μM, 24 h and 48 h",increased in intensity in a concentration-dependent manner
same,remaining activity at 10 µM,CK2α (CK2a),24%
same,number of the 63 PK inhibited (reduction in activity of >50%) in addition to CK2α and CK2α′,[5],twelve
same,endogenous CK2 activity of LNCaP cells,[4],50%
same,viability at 25 µM,"LNCaP cells; 25 μM, 24 h",45%
same,viability at 25 µM,"LNCaP cells; 25 μM, 48 h",37%
same,viability at 25 µM,"LNCaP cells; 25 μM, 72 h",14%
same,viability at 50 µM,LNCaP cells; 24 h,30%
same,viability at 50 µM,LNCaP cells; 48 h,15%
same,viability at 50 µM,LNCaP cells; 72 h,5%
same,viability at 75 µM,LNCaP cells; 24 h,31%
same,viability at 75 µM,LNCaP cells; 48 h,12%
same,viability at 75 µM,LNCaP cells; 72 h,3%
O=c1cc(-c2ccc(O)cc2)oc2cc(O)cc(O)c12 [apigenin],IC50,CK2,~1000 nM
